We go through 34 compounds from US7652046B2, “Substituted thienopyrrole carboxylic acid amides, pyrrolothiazole carboxylic acid amides, and related analogs as inhibitors of casein kinase I” (Aventis Pharmaceuticals Inc., priority 2004, dated 2010).

Structures are written as SMILES. pKi: −log10 of the molar value.

T1 sequence (P49674 whole entry): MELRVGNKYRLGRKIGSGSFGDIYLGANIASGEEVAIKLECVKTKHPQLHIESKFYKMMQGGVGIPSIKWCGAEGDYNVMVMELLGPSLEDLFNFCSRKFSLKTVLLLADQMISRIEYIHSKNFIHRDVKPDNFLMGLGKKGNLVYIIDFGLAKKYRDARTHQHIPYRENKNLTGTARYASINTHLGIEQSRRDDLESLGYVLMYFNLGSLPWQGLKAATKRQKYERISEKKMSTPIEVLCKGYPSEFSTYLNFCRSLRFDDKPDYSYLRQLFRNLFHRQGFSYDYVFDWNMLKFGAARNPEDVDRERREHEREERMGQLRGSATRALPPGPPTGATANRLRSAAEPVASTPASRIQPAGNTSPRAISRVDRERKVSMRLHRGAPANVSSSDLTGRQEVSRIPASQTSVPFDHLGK

The assay concerns the target T1, Casein Kinase Iε (Homo sapiens, UniProt P49674).
T1 construct: made in house
As to the kind of experiment: Casein Kinase Epsilon 33P-ATP Filter Plate Assay. It is filed as biochemical. The text has this:
Casein Kinase Epsilon ^33P-ATP Filter Plate Assay for Screening CKIε Inhibitors
Purpose: This assay measures the ability of compounds to inhibit the phosphorylation of the substrate casein by the enzyme casein kinase 1ε using an in vitro ^33P-ATP filtration assay. […] Materials:
Equipment: • Beckman Biomek 2000 Liquid Handling Robot • Beckman Multimek 96 Automated 96 Channel Pipettor • Millipore Vacuum Manifold Basic Kit # MAVM0960R • Titertek Multidrop Liquid Dispenser • Packard TopCount NXT Liquid Scintillation Counter
Enzyme: • Casein Kinase 1ε final concentration 0.58 mg/ml obtained from fermentation and purification processes as are well known to one skilled in the art. The above are stored as 100 μL aliquots at minus 80° C.
Compounds: • Supply compounds for testing as frozen 10 mM compound stock dissolved in 100% DMSO. Assay Conditions:
Final total assay volume per well is equal to 50 μL that one prepares as follows: • 5 μL of diluted compound stock (10, 1, 0.1, 0.01 or 0.001 μM), • 5 μL of dephosphorylated casein final concentration 0.2 μg/μL, • 20 μL of CK1ε final concentration 3 ng/μL, and • 20 μL of γ-^33P-ATP final concentration 0.02 μCi/μL mixed with cold ATP (10 μM final). Methodology: • 1. Prepare 500 mL of fresh assay buffer: 50 mM Tris pH 7.5, 10 mM MgCl2, 2 mM DTT and 1 mM EGTA • 2. Obtain compounds to be evaluated as 10 μL of 10 mM stock dissolved in 100% DMSO. Use a Biomek 2000 liquid handling robot, make serial dilutions to yield 10, 1, 0.1, 0.01 and 0.001 μM final compound dilutions added as 5 μL additions to Falcon U bottom plates. […] A routine screening assay will consist of 32 compounds, which equals 4 assay plates. • 3. Assay plate maps are set up according to the following pattern CK1ePlateMap.xls
• 4. Add 5 μL of compound as indicated, then add 5 μL of dephosphorylated casein (dissolved in distilled H20)(0.2 μg/μL) and 20 μL CK1ε (3 ng/μL) to the appropriate wells. • 5. Finally add 20 μL γ-^33P-ATP (0.02 μCi/μL)/10 μM cold ATP (equals approximately 2×10^6 CPM per well). • 6. Vortes the Falcon U-Bottom assay plate containing the above 50 μL reaction volume and then incubate at room temperature for 2 hours. • 7. At the end of 2 hours, stop the reaction by the addition of 65 μL of ice cold 2 mM cold ATP (made up in assay buffer) to the assay plates using a Beckman Multimek. • 8. At the same time add 25 μL 100% ice cold TCA made up in distilled H20 to a matching number of Millipore MAPH filter plates. • 9. Using a handheld 8-channel pipettor, transfer 100 μL of the reaction mixture from the Falcon U-Bottom Plate to the Millipore MAPH filter plates presoaked with TCA. • 10. Mix the Millipore MAPH filter plates gently and allow to sit at room temperature for at least 30 minutes to precipitate the proteins. • 11. After 30 minutes, place the filter plates on a Millipore vacuum manifold and filter at no more than 8 mm Hg as the MAPH filters tend to “air lock” at higher vacuum settings. • 12. Wash the filter plates sequentially and filter with 2×150 μL 20% TCA, 2×150 μL 10% TCA and 2×150 μL 5% TCA (total of 6 washes per plate/900 μL per well). • 13. Allow the plates to dry overnight at room temperature. The next day add 40 μL Packard Microscint-20 Scintillation Fluid per well using a Titertek Multidrop dispenser; seal the plates and count for 2 minutes/well in a Packard Topcount NXT Scintillation Counter (to provide CPM values/well). Calculation: • 1. Import Counts Per Minute (CPM) data into a proprietary data calculation and archiving database (Activity Base by IDBS version 5.0). • 2. Column 1 for each plate reflects total phosphorylation activity of the enzyme in the absence of any inhibiting compound and thus represents 100%. Column 12 reflects any nonspecific phosphorylation/retained radioactivity activity in the absence of inhibiting compound and enzyme.
Compound `COc1ccccc1Sc1c(C(N)=O)[nH]c2ccsc12` [Ir, 6-(2-Methoxy-phenylsulfanyl)-4H-thieno[3,2-b]pyrrole-5-carboxylic acid amide] showed a pKi of 6.48.
As to `Cc1cc(C)cc(Sc2c(C(N)=O)[nH]c3ccsc23)c1` [Ip, 6-(3,5-Dimethylphenylsulfanyl)-4H-thieno[3,2-b]pyrrole-5-carboxylic acid amide], the pKi was 6.45. This pKi and that of the compound before are within 0.2 log units of each other.
With `NC(=O)c1[nH]c2sc(Sc3ccccc3)nc2c1Sc1ccccc1` [IIq, 2,6-Bis-phenylsulfanyl-4H-pyrrolo[3,2-d]thiazole-5-carboxylic acid amide] the figure was 6.48.
With `CCc1ccccc1Sc1c(C(N)=O)[nH]c2ccsc12` [In, 6-(2-Ethylphenylsulfanyl)-4H-thieno[3,2-b]pyrrole-5-carboxylic acid amide] the figure was 6.62.
`COc1cccc(Sc2c(C(N)=O)[nH]c3sccc23)c1` [IIh, 4-(3-Methoxyphenyl-sulfanyl)-6H-thieno[2,3-b]pyrrole-5-carboxylic acid amide] gave a pKi of 7.61.
In the case of `NC(=O)c1[nH]c2ccsc2c1Sc1ccc(Cl)cc1` [Ic, 6-(4-Chlorophenyl-sulfanyl)-4H-thieno[3,2-b]pyrrole-5-carboxylic acid amide] it was less than 5.00.
As to `COc1cccc(Sc2c(C(N)=O)[nH]c3ccsc23)c1` [Iq, 6-(3-Methoxy-phenylsulfanyl)-4H-thieno[3,2-b]pyrrole-5-carboxylic acid amide], the pKi is 7.42.
In turn, `Cc1nc2c(Sc3cccc(OC(F)(F)F)c3)c(C(N)=O)[nH]c2s1` [IIp, 6-(3-Trifluoromethoxy-phenylsulfanyl)-2-methyl-4H-pyrrolo[3,2-d]thiazole-5-carboxylic acid amide] had a pKi of 5.39. Compared with the last compound, the pKi is 2.03 log units lower.
As to `NC(=O)c1[nH]c2ncsc2c1Sc1ccccn1` [Ix, 6-(Pyridin-2-ylsulfanyl)-4H-pyrrolo[2,3-d]thiazole-5-carboxylic acid amide], the pKi is 5.76.
Compound `NC(=O)c1[nH]c2ccsc2c1Sc1ccccc1C(F)(F)F` [Is, 6-(2-Trifluoromethyl-phenylsulfanyl)-4H-thieno[3,2-b]pyrrole-5-carboxylic acid amide] gave a pKi of 6.32.
With `NC(=O)c1[nH]c2sccc2c1Sc1ccncc1` [IId, 4-(Pyridin-4-ylsulfanyl)-6H-thieno[2,3-b]-pyrrole-5-carboxylic acid amide], the pKi is 5.97. Compared with the last compound, the pKi is 0.35 log units lower.
With `NC(=O)c1[nH]c2ccsc2c1Sc1cccc(F)c1` [Ib, 6-(3-Fluorophenyl-sulfanyl)-4H-thieno[3,2-b]pyrrole-5-carboxylic acid amide], the pKi was 6.80. This pKi is 0.83 log units higher than that of the compound before.
Consider `COc1cccc(Sc2c(C(N)=O)[nH]c3sc(C)nc23)c1` [IIm, 6-(3-Methoxyphenyl-sulfanyl)-2-methyl-4H-pyrrolo[3,2-d]thiazole-5-carboxylic acid amide], for which the pKi was 7.17. Compared with the last compound, the pKi is 0.37 log units higher.
`NC(=O)c1[nH]c2sccc2c1Sc1cc(Cl)cc(Cl)c1` [IIe, 4-(3,5-Dichlorophenyl-sulfanyl)-6H-thieno[2,3-b]pyrrole-5-carboxylic acid amide] gave a pKi of 6.96.
With `NC(=O)c1[nH]c2ncsc2c1Sc1cccc(F)c1` [Iw, 6-(3-Fluoro-phenylsulfanyl)-4H-pyrrolo[2,3-d]thiazole-5-carboxylic acid amide], the pKi was 5.69.
In the case of `NC(=O)c1[nH]c2ccsc2c1Sc1cc(Cl)ccc1Cl` [Im, 6-(2,5-Dichloro-phenylsulfanyl)-4H-thieno[3,2-b]pyrrole-5-carboxylic acid amide] it was 5.90; in that of `NC(=O)c1[nH]c2ccsc2c1Sc1cccc(OC(F)(F)F)c1` [Iu, 6-(3-Trifluoromethoxy-phenylsulfanyl)-4H-thieno[3,2-b]pyrrole-5-carboxylic acid amide], 6.25; in that of `NC(=O)c1[nH]c2ccsc2c1Sc1cc(Cl)cc(Cl)c1` [Ih, 6-(3,5-Dichloro-phenylsulfanyl)-4H-thieno[3,2-b]pyrrole-5-carboxylic acid amide], 7.15.
`NC(=O)c1[nH]c2ccsc2c1Sc1cccc(Cl)c1Cl` [Il, 6-(2,3-Dichloro-phenylsulfanyl)-4H-thieno[3,2-b]pyrrole-5-carboxylic acid amide] showed a pKi of 6.49. Compared with the last compound, the pKi is 0.66 log units lower.
With `NC(=O)c1[nH]c2sccc2c1Sc1cccc(Cl)c1` [IIj, 4-(3-Chlorophenyl-sulfanyl)-6H-thieno[2,3-b]pyrrole-5-carboxylic acid amide] the figure was 6.95.
On to `Cc1ccccc1Sc1c(C(N)=O)[nH]c2ccsc12` [Ik, 6-o-Tolylsulfanyl-4H-thieno[3,2-b]pyrrole-5-carboxylic acid amide], for which the pKi was 6.33.
`NC(=O)c1[nH]c2ccsc2c1Sc1ccccc1` [Ia, 6-Phenylsulfanyl-4H-thieno[3,2-b]pyrrole-5-carboxylic acid amide] gave a pKi of 6.26.
`NC(=O)c1[nH]c2ccsc2c1Sc1ccccn1` [Ie, 6-(Pyridin-2-ylsulfanyl)-4H-thieno[3,2-b]pyrrole-5-carboxylic acid amide]: the pKi was 6.80.
In turn, `Cc1ccc(Sc2c(C(N)=O)[nH]c3ccsc23)cc1` [If, 6-p-Tolylsulfanyl-4H-thieno[3,2-b]pyrrole-5-carboxylic acid amide] had a pKi of 5.51.
The compound `Cc1cccc(Sc2c(C(N)=O)[nH]c3ccsc23)c1` [Ij, 6-m-Tolylsulfanyl-4H-thieno[3,2-b]pyrrole-5-carboxylic acid amide] showed a negative-log Ki (pKi) of 6.93.
Consider `NC(=O)c1[nH]c2sccc2c1Sc1ccccn1` [IIa, 4-(pyridin-2-ylsulfanyl)-6H-thieno[2,3-b]pyrrole-5-carboxylic acid amide], for which the pKi was 7.19.
As to `Cc1cccc(Sc2c(C(N)=O)[nH]c3sccc23)c1` [IIk, 4-(3-Methylphenyl-sulfanyl)-6H-thieno[2,3-b]pyrrole-5-carboxylic acid amide], the negative logarithm of the Ki (pKi) was 7.15.
In the case of `COc1cccc(Sc2nc3c(Sc4cccc(OC)c4)c(C(N)=O)[nH]c3s2)c1` [IIr, 2,6-Bis-(3-methoxy-phenylsulfanyl)-4H-pyrrolo[3,2-d]thiazole-5-carboxylic acid amide] it was 6.48; in that of `NC(=O)c1[nH]c2ccsc2c1Sc1ccncc1` [Ii, 6-(Pyridin-4-ylsulfanyl)-4H-thieno[3,2-b]pyrrole-5-carboxylic acid amide], 5.78.
Consider `NC(=O)c1[nH]c2ccsc2c1Sc1cccs1` [Ig, 6-(Thiophen-2-yl-sulfanyl)-4H-thieno[3,2-b]pyrrole-5-carboxylic acid amide], for which the pKi was 6.04.
`NC(=O)c1[nH]c2sccc2c1Sc1cccs1` [IIf, 4-(Thiophen-2-yl-sulfanyl)-6H-thieno[2,3-b]pyrrole-5-carboxylic acid amide] had a pKi of 5.84. This pKi lies 0.20 log units lower than the previous one.
Compound `NC(=O)c1[nH]c2ccsc2c1Sc1cccc(Br)c1` [Io, 6-(3-Bromo-phenylsulfanyl)-4H-thieno-[3,2-b]pyrrole-5-carboxylic acid amide] had a pKi of 7.10.
In turn, `NC(=O)c1[nH]c2ncsc2c1Sc1ccccc1` [Iv, 6-Phenylsulfanyl-4H-pyrrolo[2,3-d]thiazole-5-carboxylic acid amide] showed a pKi of 5.34. Compared with the last compound, the pKi is 1.76 log units lower.
Turning to `NC(=O)c1[nH]c2ccsc2c1Sc1ccccc1F` [It, 6-(2-Fluoro-phenylsulfanyl)-4H-thieno[3,2-b]pyrrole-5-carboxylic acid amide], the negative-log Ki (pKi) was 6.37.
